# Assay results: patent US11597737B2, “Small molecule inhibitors selective for polo-like kinase proteins” (UNIVERSITY OF SOUTH CAROLINA, priority 2016, dated 2023)
# Where two headings read alike, the source gives them in different places.
# Columns and labels:
# PLK1 PBD (367-603) = target: T1, PLK1 PBD (367-603) (Homo sapiens, UniProt P53350); test: Fluorescence polarization assay, PLK1 PBD; assay type: binding; conditions: for PLK1 versus PLK3 specificity (in words): PBD binding; for IC50: PLK1 PBD binding, fluorescence polarization, read-out: PLK1 IC50
# T1 construct: PLK1 PBD (367-603); purchased BPS Biosciences Inc. (San Diego, Calif.)
# T1 sequence (P53350 367-603): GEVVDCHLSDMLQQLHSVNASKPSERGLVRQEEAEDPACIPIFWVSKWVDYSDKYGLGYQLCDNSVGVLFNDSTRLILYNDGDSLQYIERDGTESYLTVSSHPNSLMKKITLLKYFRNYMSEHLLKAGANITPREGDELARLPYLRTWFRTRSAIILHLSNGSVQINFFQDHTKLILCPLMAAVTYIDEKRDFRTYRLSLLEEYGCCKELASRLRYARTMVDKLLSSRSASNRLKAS
# Procedure: Fluorescence Polarization Assay
# Materials were dissolved in DMSO (10 mM) and diluted from 10 nM to 600 μM (maximum of 6% DMSO tolerance in the assay). […] Incubation was carried out at room temperature for 45 minutes. Fluorescence was measured using a DTX 880 plate reader and Multimode Analysis software (Beckman Coulter, Brea, Calif.). […] Each data point was performed in triplicate for every experiment, and experiments were performed at least three times. An IC50 value for each compound was calculated from linear regression analysis of the plots.
# PC3 cells [1] = test: Cell cycle analysis after release (DAPI/BrdU FACS), FIG. 3; assay type: cell-based
# Procedure: PLK specificity can be useful in therapeutic applications, as well as in research-oriented application.
# (§1) Analysis of Cell Cycle Progression by FACS
# (§2) Serum-Starved Synchronization
# (§3) Cells were synchronized in G1 by serum starvation. Briefly, exponentially growing cells were plated overnight. Media (DMEM, 10% FBS, 1% Pen. Strep.) was then removed and replaced with media containing no FBS. Cells were starved for 72 hours then treated for 24 hours with inhibitor. Following treatment, cells were harvested and processed for endpoint experimental analysis.
# (§4) Ethanol fixative was removed by centrifugation and the cells were washed with 1 mL ice-cold PBS/1% BSA. Cells were denatured by resuspending in 0.2 mg/mL pepsin in 2N HCl and incubated in 37° C. water bath for 15 minutes. Hydrolysis was then terminated by adding 1 M Invitrogen™ Novex® Tris-Glycine. Cells were then washed with PBS/1% BSA then the primary anti-BrdU antibody (1:100 dilution in TBFP; 0.5% Tween-20, 1% BSA, 1% FBS, PBS) was added and cells were incubated for 25 minutes in the dark, at room temperature. […] Cells were washed once more with PBS/1% BSA and re-suspended in DAPI for 30 minutes before being analyzed by flow cytometry.
# PC3 cells [2] = test: Cell cycle analysis and BrdU pulse labeling in PC3 cells, FIG. 9-11; assay type: cell-based; conditions: for cells replicating their DNA (BrdU labeling): 5 μM
# Procedure: as §1, §2, §3, §4
# The PLK1 PBD-inhibitors were analyzed further by cell cycle analysis in PC3 cells (FIG. 9). […] To quantify the percentage of cells actively proliferating (synthesizing their DNA) or arrested Bromodeoxyuridine (BrdU) pulse labeling was carried out and analyzed by flow cytometry.
# [3] = test system: KRAS mutant lung cancer (A-549) cells; test: Cell viability assay (MTT), A-549; assay type: cell-based; conditions: 72 hours
# Procedure: A-549 lung cancer cells were maintained in Hams F-12 1× with glutamine (Corning® Cellgro, Manassas, Va.), and supplemented with 10% FBS or Corning® Nu-Serum™ (BD™ Biosciences, Franklin Lakes, N.J.) and 1% penicillin/streptomycin (Invitrogen™) in a humidified incubator and 5% C02 at 37° C.
# (§5) Exponentially growing cells were plated in 96-well dishes. Dose response curves were used to treat cells for 72 hours with inhibitors. Following the three-day treatment, cell viability was measured using the MTT (3-(4,5-dimethylthiazol-2-yl)-2,5-diphenyltetrazolium bromide) colorimetric assay. Cells were incubated for 3 hours with MTT allowing viable cells to metabolize the tetrazolium dye to a purple colored solution. Absorbance measurements (595 nm) were quantified using a DTX 880 plate reader and IC50 values were generated for FLIPs.
# [4] = test system: PTEN deficient prostate cancer (PC3) cells; test: Cell viability assay (MTT), PC3; assay type: cell-based; conditions: read-out: PCC-3
# Procedure: PC3 prostate cancer cells were maintained in DMEM (Invitrogen™, Carlsebad, Calif.) supplemented with 10% FBS or Corning® Nu-Serum™ (BD™ Biosciences, Franklin Lakes, N.J.) and 1% penicillin/streptomycin (Invitrogen™) in a humidified incubator and 5% C02 at 37° C.
# (§6) Exponentially growing cells were plated in 96-well dishes. Dose response curves were used to treat cells for 72 hours with inhibitors. Following the three-day treatment, cell viability was measured using the MTT (3-(4,5-dimethylthiazol-2-yl)-2,5-diphenyltetrazolium bromide) colorimetric assay. Cells were incubated for 3 hours with MTT allowing viable cells to metabolize the tetrazolium dye to a purple colored solution.
# [5] = test system: HCT-116 (p53−/−) colon cancer cells; test: Cell viability assay (MTT), HCT116 p53-/-; assay type: cell-based; conditions: 72 hours
# Procedure: HCT-116 (p53+/+ and −/−) colon cancer cells were maintained DMEM (Invitrogen™, Carlsebad, Calif.) supplemented with 10% FBS or Nu-serum (BD™ Biosciences, Franklin Lakes, N.J.) and 1% penicillin/streptomycin (Invitrogen™) in a humidified incubator and 5% C02 at 37° C.
# as §5
# [6] = test system: HeLa cervical cancer cells; test: Cell viability assay (MTT), HeLa; assay type: cell-based; conditions: read-out: HeLa
# Procedure: HeLa cervical cancer cells were obtained from ATCC (Manassas, Va.). […] Cells were maintained in DMEM (Invitrogen™, Carlsebad, Calif.) supplemented with 10% FBS or Corning© Nu-Serum™ (BD™ Biosciences, Franklin Lakes, N.J.) and 1% penicillin/streptomycin (Invitrogen™) in a humidified incubator and 5% CO2 at 37° C.
# as §6
# [7] = Cell cycle analysis and caspase apoptosis assay; assay type: cell-based
# Text: Disclosed small molecule inhibitors can also encourage apoptosis.
# full length PLK1 = target: T2, full length PLK1 (Homo sapiens, UniProt P53350); test: PLK1 kinase inhibition assay (CycLex ELISA); assay type: biochemical; conditions: 7.5 μM ATP, read-out: PLK1 Kinase Inhibitory Act. IC50
# T2 construct: This ELISA assay measures the catalytic activity of full length PLK1 for a defined substrate
# T2 sequence (P53350 whole entry): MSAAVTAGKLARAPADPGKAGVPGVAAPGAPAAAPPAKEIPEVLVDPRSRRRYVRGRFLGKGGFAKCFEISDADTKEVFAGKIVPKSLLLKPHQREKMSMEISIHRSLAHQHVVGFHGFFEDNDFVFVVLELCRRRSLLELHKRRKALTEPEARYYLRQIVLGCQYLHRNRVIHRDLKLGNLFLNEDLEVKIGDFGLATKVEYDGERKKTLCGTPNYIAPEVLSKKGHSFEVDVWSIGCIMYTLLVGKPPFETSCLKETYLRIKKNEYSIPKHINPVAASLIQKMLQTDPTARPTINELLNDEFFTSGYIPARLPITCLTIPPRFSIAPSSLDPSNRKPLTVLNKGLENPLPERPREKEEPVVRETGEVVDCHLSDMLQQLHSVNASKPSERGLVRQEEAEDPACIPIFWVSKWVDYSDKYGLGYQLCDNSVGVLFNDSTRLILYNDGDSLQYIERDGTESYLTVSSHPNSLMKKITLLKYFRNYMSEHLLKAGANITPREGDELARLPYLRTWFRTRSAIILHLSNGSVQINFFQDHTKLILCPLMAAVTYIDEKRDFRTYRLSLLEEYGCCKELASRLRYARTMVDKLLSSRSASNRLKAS
# Text: PLK1 Kinase Inhibition Assay
# The CycLex® Polo-like Kinase 1 Assay/Inhibitor Screening Kit was used to measure catalytic inhibition (MBL Life Science, Nagano, Japan). This ELISA assay measures the catalytic activity of full length PLK1 for a defined substrate, which is detected by an anti-phospho-threonine antibody (PPT-07) and peroxidase coupled secondary antibody. […] Peroxidase catalyzes the conversion of the colorless solution to yellow, which was quantified using a DTX 880 plate reader. Absorbance measurements (450 nm) were plotted to calculate activity in each sample, and % inhibition was calculated in the wells relative to activity in the absence of inhibitor.
# [8] = test system: HCT-116 (p53+/+) colon cancer cells; test: Cell viability assay (MTT), HCT116 p53+/+; assay type: cell-based; conditions: 72 hours
# Procedure: as §6
# [9] = Cytotoxicity, cell viability and apoptosis data, FIG. 12; assay type: cell-based; conditions: average from various assays
# Text: For instance, FIG. 12 presents cytotoxicity, cell viability, and apoptosis data for cells treated with inhibitor SCCP ID No: 6037. […] The data of FIG. 13 relates to SCCP ID No: 5914 and the data of FIG. 14 relates to SCCP ID No: 5915.
# [10] = FIG. 3 4th panel, concentration not given
compound,measurement,setting,value
CCCCCCCCc1ccc(C(=O)Nc2ccc(C)cc2C(=O)O)cc1 [SCCP ID No. 5915],PLK1 versus PLK3 specificity (in words),PLK1 PBD (367-603),high selectivity for PLK1
same,IC50,PLK1 PBD (367-603),2.16 ± 0.01 µM
same,G2/M by DAPI,PC3 cells [1]; [10],42%
same,cells BrdU+,PC3 cells [1]; [10],13%
same,cells replicating their DNA (BrdU labeling),PC3 cells [2],28.3%
same,BrdU+,PC3 cells [2]; 15 μM,3.6%
same,cell cycle phenotype (in words),PC3 cells [2]; 15 μM,G1 delay or arrest
same,IC50,[3],5.1 ± 1.5 µM
same,IC50,"[4]; MTT, 72 hours",16.3 ± 2.1 µM
same,IC50,[5],10 ± 1 µM
same,IC50,"[6]; MTT, 72 hours",15.5 ± 1.7 µM
same,levels of apoptosis (in words),[7],high levels of apoptosis
same,IC50,full length PLK1,24.3 µM
same,IC50,[8],17.4 ± 5.6 µM
CCCCCCCCCCCCc1ccc(C(=O)Nc2ccccc2C(=O)O)cc1 [SCCP ID No. 6037],PLK1 versus PLK3 specificity (in words),PLK1 PBD (367-603),selectivity for PLK3
same,IC50,PLK1 PBD (367-603),5.97 ± 0.38 µM
same,cell viability,[9],15.6 ± 3.4 µM
same,cytotoxicity,[9],14.8 ± 3.6 µM
same,G2/M by DAPI,PC3 cells [1]; 5 μM,7%
same,BrdU+,"PC3 cells [1]; 5 μM, FIG. 3 2nd panel",27%
same,G1 by DAPI,"PC3 cells [1]; 5 μM, FIG. 3 2nd panel",77%
same,S by DAPI,"PC3 cells [1]; 5 μM, FIG. 3 2nd panel",15%
same,G2/M by DAPI,"PC3 cells [1]; 20 μM, FIG. 3 3rd panel",28%
same,cells replicating their DNA (BrdU labeling),PC3 cells [2],75.7%
same,BrdU+,PC3 cells [2]; 15 μM,1.9%
same,cell cycle phenotype (in words),PC3 cells [2]; 15 μM,G1 arrest
same,cell cycle phenotype (in words),"PC3 cells [2]; both the lower (5 μM) and higher (15 μM) dose, FIG. 11",G1 accumulation
same,IC50,"[4]; Homo sapiens, PC-3, 72 h",9.4 ± 0.8 µM
same,IC50,"[6]; Homo sapiens, HeLa, 72 h",14 ± 3.5 µM
same,levels of apoptosis (in words),[7],high levels of apoptosis
